# Test results: PubChem BioAssay (NCI)
#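 Each compound was tested at five concentrations against cells in 96-well plates for 48 hours. GI50: concentration for 50% inhibition of growth. TGI: concentration producing complete growth inhibition.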
# Experiments:
# Assay in all cases: NCI anticancer screen, dose series, 48 h
# [1] = tested on: UACC-62 melanoma
# [2] = tested on: HCT-15 colon
# [3] = tested on: EKVX NSCLC
# [4] = tested on: K-562 leukemia
# [5] = tested on: SF-295 CNS
# [6] = tested on: HS 578T breast
# [7] = tested on: SK-MEL-2 melanoma
# [8] = tested on: MDA-MB-231 breast
# [9] = tested on: SK-OV-3 ovarian
# [10] = tested on: ACHN renal
# [11] = tested on: 786-0 renal
# [12] = tested on: OVCAR-5 ovarian
# [13] = tested on: SF-539 CNS
# [14] = tested on: TK-10 renal
# [15] = tested on: KM12 colon
# [16] = tested on: PC-3 prostate
# [17] = tested on: OVCAR-3 ovarian
# [18] = tested on: UACC-257 melanoma
# [19] = tested on: SK-MEL-28 melanoma
# [20] = tested on: COLO 205 colon
# [21] = tested on: A549 NSCLC
# [22] = tested on: MOLT-4 leukemia
# [23] = tested on: OVCAR-8 ovarian
# [24] = tested on: RPMI-8226 leukemia
# [25] = tested on: HOP-62 NSCLC
# [26] = tested on: MALME-3M melanoma
# [27] = tested on: DU-145 prostate
# [28] = tested on: HCT-116 colon
# [29] = tested on: SR leukemia
smiles,measurement,setting,value
Cc1ccc(Cl)cc1NC(=O)N/C(N)=N/c1nc2ccccc2s1,GI50,[1],46.7 nM
same,TGI,[1],5.53 µM
same,GI50,[2],40.5 nM
same,TGI,[2],3 µM
same,GI50,[3],109 nM
same,TGI,[3],15.2 µM
same,GI50,[4],34.6 nM
same,TGI,[4],> 33.9 µM
same,GI50,[5],29.9 nM
same,TGI,[5],1300 nM
same,GI50,[6],34.3 nM
same,TGI,[6],22.7 µM
same,GI50,[7],95 nM
same,TGI,[7],941 nM
same,GI50,[8],39.2 nM
same,TGI,[8],278 nM
same,GI50,[9],62.4 nM
same,TGI,[9],4.73 µM
same,GI50,[10],79.4 nM
same,TGI,[10],6.37 µM
same,GI50,[11],64.1 nM
same,TGI,[11],4.02 µM
same,GI50,[12],131 nM
same,TGI,[12],4.96 µM
same,GI50,[13],22.2 nM
same,TGI,[13],54.7 nM
same,GI50,[14],4.95 µM
same,TGI,[14],16.6 µM
same,GI50,[15],45.5 nM
same,TGI,[15],7.12 µM
same,GI50,[16],55.1 nM
same,TGI,[16],11.3 µM
same,GI50,[17],36.8 nM
same,TGI,[17],1330 nM
same,GI50,[18],6.47 µM
same,TGI,[18],33.2 µM
same,GI50,[19],608 nM
same,TGI,[19],19.9 µM
same,GI50,[20],67.9 nM
same,TGI,[20],285 nM
same,GI50,[21],115 nM
same,TGI,[21],4.5 µM
same,GI50,[22],60.3 nM
same,TGI,[22],8.4 µM
same,GI50,[23],43.8 nM
same,TGI,[23],2080 nM
same,GI50,[24],42.5 nM
same,TGI,[24],6.19 µM
same,GI50,[25],50.8 nM
same,TGI,[25],2980 nM
same,GI50,[26],54.4 nM
same,TGI,[26],12 µM
same,GI50,[27],47.1 nM
same,TGI,[27],2850 nM
same,GI50,[28],37.1 nM
same,TGI,[28],696 nM
same,GI50,[29],51.3 nM
